Experimental data: US7034047B2, “Triazole derivative” (Astellas Pharma, Inc., priority 2000, dated 2006)

Assays:
[1] = molecular target: T1, GLYT1 subtype of the glycine transporter (Rattus norvegicus, UniProt P28572); assay: [3H]-glycine uptake assay in C6 glioma cells (action of inhibiting glycine transporter); type: cell-based; conditions: 20 min at 37° C., read-out: GLYT-inhibiting activity IC50
T1 construct: C6 glioma cell expressing GLYT1 subtype of the glycine transporter; host or cells: C6 glioma cells
T1 sequence (P28572 1-638): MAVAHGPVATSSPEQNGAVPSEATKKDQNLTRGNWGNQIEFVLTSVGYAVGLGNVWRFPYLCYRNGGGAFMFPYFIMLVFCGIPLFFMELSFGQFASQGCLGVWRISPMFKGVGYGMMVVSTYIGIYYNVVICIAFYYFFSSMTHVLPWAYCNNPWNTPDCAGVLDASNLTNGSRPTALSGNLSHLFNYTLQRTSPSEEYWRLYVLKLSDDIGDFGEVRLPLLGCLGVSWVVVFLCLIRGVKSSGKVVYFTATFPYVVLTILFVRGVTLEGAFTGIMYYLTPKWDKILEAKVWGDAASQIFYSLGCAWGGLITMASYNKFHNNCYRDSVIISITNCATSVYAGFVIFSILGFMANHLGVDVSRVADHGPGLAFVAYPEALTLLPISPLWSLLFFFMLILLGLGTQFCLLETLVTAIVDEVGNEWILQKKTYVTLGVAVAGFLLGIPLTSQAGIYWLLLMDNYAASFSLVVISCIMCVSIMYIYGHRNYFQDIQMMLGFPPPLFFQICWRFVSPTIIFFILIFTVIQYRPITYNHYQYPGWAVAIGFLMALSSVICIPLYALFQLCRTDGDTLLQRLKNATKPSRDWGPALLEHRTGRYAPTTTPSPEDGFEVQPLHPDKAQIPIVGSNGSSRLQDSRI
Protocol: 1. Action of Inhibiting Glycine Transporter
C6 glioma cell (American Type Culture Collection) was cultured in DMEM containing 10% fetal bovine serum, 100 units/ml penicillin G and 0.1 mg/ml streptomycin sulfate in a CO2 incubator under conditions of 5% CO2 and 37° C.
[^3H]-glycine uptake was performed by the method of Gomeza, et al.
C6 glioma cells were plated out at a concentration of 2×10^4 cells/well in a 96-well plate (Culturplate, Packard Co.), for culturing for 2 days. Subsequently, [^3H]-glycine uptake was tested. The cell was rinsed once in a buffer (150 mM NaCl, 5 mM KCl, 1 mM CaCl2, 1 mM MgCl2, 10 mM glucose, 5 mM L-alanine, 10 mM Hepes-Na, pH 7.4), followed by subsequent addition of the buffer, for incubation at 37° C. for 10 minutes.
After incubation, the buffer was exchanged to a reaction buffer including [^3H]-glycine (about 0.2 μM, 41 Ci/mmol, New England Nuclear)and a compound to be assessed, for incubation at 37° C. for another 20 minutes. After 20-min reaction, the reaction mixture was rinsed in ice-cold PBS (phosphate buffered saline). The cell was dissolved in 0.1N NaOH solution, to assay the radioactivity incorporated with a liquid scintillation counter. The specific incorporation was defined as a portion substituted with 3 mM sarcosine in the total incorporation. The test compound was assessed by determining the incorporation-inhibiting ratio of the specific incorporation.

[2] = tested on: (+)-HA966-induced learning disability; assay: (+)-HA966-induced learning disability (mouse passive avoidance test); type: in vivo, male ddY mouse; conditions: dosed intraperitoneally; step-through latency, p<0.05
From the text: 3. (+)-HA966-Induced Learning Disability (Mouse Passive Avoidance Test)
• Animal: male ddY mouse (Nippon SLC; age 7 to 9 weeks at training) was used. 16 to 32 animals were used per one group. <Experimental Procedures> Preparation of Pharmaceutical Drugs • (1) A test compound for oral administration was suspended in aqueous 0.5%methyl cellulose solution, and for intraperitoneal administration was suspended in solution dissolved 0.5% of methyl cellulose solution in saline (hereinafter referred to as 0.5% methyl cellulose solution). The administration volume was 10 ml per 1 kg·body weight. […]
• (1) On day 1 at the learning experiment, the mice were acclimated in an experimental room for one hour or longer. • (2) A test compound or the vehicle was orally or intraperitoneally given. • (3) 20 minutes thereafter, (+)-HA966 was administered at 60 μg intracerebroventriculally. • (4) 15 minutes after the dosing of (+)-HA966, the each mouse was placed in the bright room of the experimental apparatus of the passive avoidance reaction test, where the mouse was left for 30 seconds. […] A significance was determined at p<0.05.

IC50 [1]: 360 nM
SMILES: CC(C)c1nnc(-c2ccc(-c3ccccc3)cc2)n1-c1ccccc1F [Production Example 1, 3-Biphenyl-4-yl-4-(2-fluorophenyl)-5-isopropyl-4H-1,2,4-triazole]
minimum effective dose [2]: 3 mg/kg
